Experiments:
DU145 = experiment: Uptake of AS1411 by macropinocytosis (MP); format: cell-based; details: DU145; Cancer, prostate
Experimental: (§1) FIG. 2 are graphs showing that AS1411 is internalized by different endocytic mechanisms in DU145 cancer cells and in non-malignant Hs27 cells. DU145 or Hs27 cells were plated 18 h before uptake analysis. Cells were pre-treated as described with inhibitor (gray histogram) or the corresponding vehicle control (black histogram) before addition of 10 μM FL-AS1411 and incubation at 37° C. for 2 h. After incubation, cells were harvested and analyzed by flow cytometry. Pre-treatment conditions were at 37° C. with: (Panel A) 5 μM Cytochalasin D for 30 min; (Panel B) 80 μM Dynasore for 30 min; or (Panel C) 3 mM amiloride for 1 h. All experiments were repeated at least three times and representative data are shown. Solid gray histograms represent background autofluorescence of unstained cells.
To analyze uptake of the oligodeoxynucleotides or dextran-10K (macropinocytic marker) by flow cytometry, 2×10^5 cells in fresh supplemented culture medium (2.5 ml) were plated into 6-well plates for 18 h. After complete adhesion, the cells were incubated with 5′-FAM tagged oligodeoxynucleotides or Alexa Fluor 488 tagged dextran-10K and incubated as indicated in the Description of the Drawings. Cells were washed once with ice-cold PBS, incubated with 1 μg/ml 7-amino-actinomycin D (7-AAD) for 5 min on ice or 1 μg/ml propidium iodide (PI), and washed twice with ice-cold PBS. […]

Hs27 cells = experiment: Uptake of fluorophore-labeled oligonucleotides by flow cytometry; format: cell-based, human; details: 10 μM, 2 h
Experimental: FIG. 1 are graphs showing that AS1411 cell internalization is an active process. Cells were plated 18 h before uptake analysis. After incubation as described, cells were washed with ice-cold PBS, incubated with 1 μg/ml 7-AAD, harvested and resuspended in 1% paraformaldehyde containing 2 μg/ml actinomycin D, then analyzed by flow cytometry. (Panel A) DU145 cells were incubated at 37° C. with fresh complete DMEM medium containing 10 μM FL-AS1411 (black line) or 10 μM FL-CRO (gray line) for the time indicated. (Panel B) DU145 cells were incubated for 2 h at 37° C. in complete or serum-free DMEM medium containing 10 μM FL-AS1411, or 10 μM FL-CRO, or no oligonucleotide. (Panel C) Various cell lines were incubated with 10 μM FL-AS1411 (black outline histogram), 10 μM FL-CRO (gray outline histogram) or without DNA (solid gray histogram) at 37° C. or 4° C. for 2 h. All experiments were repeated at least three times. Data are mean of three independent samples; bars, SE; *(p<0.05).
as §1
FIG. 9 are graphs showing the effects of inhibitors on various endocytic pathways. DU145 or Hs27 cells were plated 18 hr before uptake analysis. (Panel A) DU145 cells were pre-treated with dynamin inhibitor, […] Dynasore (black histogram) or DMSO (gray histogram) for 30 min at 37° C. After pre-treatment, cells were treated with […] transferrin conjugated with Alexa Fluor 488 for 30 min at 37° C. (Panel B) DU145 and Hs27 cells were pre-treated with 3 mM amiloride (black histogram) or vehicle (serum-free medium, gray histogram) for 1 h at 37° C. After pre-treatment, FL-CRO was added at a concentration of 10 μM and incubated at 37° C. for 2 h. After incubation, cells were harvested and analyzed by FACS. Gray solid histogram represents unstained cells.
To analyze uptake of the oligodeoxynucleotides or dextran-10K (macropinocytic marker) by flow cytometry, 2×10^5 cells in fresh supplemented culture medium (2.5 ml) were plated into 6-well plates for 18 h. […]

several cell lines = experiment: Annexin V / PI flow cytometry to assess cell death; format: cell-based
Experimental: (A) Trypan blue staining of U937 leukemia cells showing percentage of dead cells (trypan blue positive) over time. (B) U937 cells were untreated (Un) or treated with 1 μM AS1411 (1411) or control oligonucleotide (Ctrl) for 72 h. DNA was extracted, electrophoresed on an agarose gel and stained with ethidium bromide to probe DNA laddering. As a positive control, […] were treated with UV irradiation to induce apoptosis as previously described. […] (D) U937 cells treated as described for panel B, followed by protein extraction and immunoblotting (IB) to detect PARP cleavage and Caspase-3 activation. (E) DU145 prostate cancer cells were incubated with 10 μM of AS1411 for 24 h, or irradiated with UV (300 J/m^2 with UV Stratalinker 2400, Strategene), then cultured in fresh medium for 6 h. Assessment of cell death was carried out by flow cytometry to detect Annexin V-FITC binding and PI staining.

DU145 cells = format: cell-based; details: 4 days, 10 μM AS1411
Experimental: DU145 cells were incubated for 4 days in the presence of 10 μM AS1411 with 3-MA at the concentration indicated, and cell number was assessed by MTT assay.
It also appears unlikely that AS1411-induced cell death is due to autophagy. […] Further evidence that supports the idea that AS1411 can induce methuosis comes from the similarity between the appearance of cells treated with AS1411 and published images of glioblastoma cells undergoing Ras-induced methuosis.

Which results are given for “5′-d(GGTGGTGGTGGTTGTGGTGGTGGTGG) [AS1411]”?
Update by MP? (DU145): Yes; uptake in Hs27 cells compared with cancer cells (Hs27 cells): higher uptake of AS1411 than any of the cancer cells analyzed; Annexin V / PI quadrant in which cells appear (several cell lines): Annexin V-positive/propidium iodide (PI)-positive quadrant (indicative of necrosis); effect in combination with 3-MA (DU145 cells): additive
